Results on 17 molecules are retold here after patent US7112586B2, “Substituted diamine derivatives useful as motilin antagonists” (Ortho-McNeil Pharmaceutical, Inc., priority 2000, dated 2006).

The target in one experiment is T1, Motilin Receptor (Oryctolagus cuniculus, UniProt G1T803).
T1 construct: The muscle tissue was homogenized in 10 volumes of 50 mM Tris-Cl; from tissue; host or cells: rabbit colon smooth muscle, crude membrane homogenate
Nature of the experiment: Motilin receptor binding, rabbit colon membranes, 125I porcine motilin. Details: Rabbit Colon % Inh / inhibition / % Inh (Rabbit colon): dose or concentration left out as unconfirmed. Particulars: rabbit colon membranes; for inhibition: read-out: Rabbit Colon % Inh; for pIC50: read-out: Rabbit Colon IC50.

Experiment [1] concerns motilin induced contraction. Briefly: Rabbit tissue bath procedure: inhibition of motilin induced contraction of duodenum segments. Details: species or system New Zealand White rabbit. To be noted: 3 nM porcine motilin induced contraction, read-out: Tissues IC50. The method, then: Rabbit Tissue Bath Procedure
One New Zealand White rabbit (Covance) of either sex was euthanized with an IV injection of Sleepaway. The duodenum was quickly excised, the lumen rinsed with saline to clean, and the tissue placed in cold, aerated (95% O2–5% CO2) Tyrodes buffer (NaCl 136.9 mM, KCl 2.7 mM, CaCl2 1.8 mM, MgCl2 1.04 mM, NaH2PO4 0.42 mM, NaHCO3 11.9 mM, Glucose 5.55 mM, pH 7.4). The duodenum, being kept moist at all times, was cleaned of any excess mesenteric tissue, and then cut into 3 cm segments starting at the proximal end. Sixteen tissue segments were usually prepared from each duodenum. These segments were tied on both ends with 3-0 silk suture (Ethicon). One end of the tissue was attached to an S-hook on a custom made glass support rod (Crown Glass Co., Somerville) and the rod plus tissue were placed in a 15 ml isolated tissue bath (Radnoti). The other end of the glass rod was attached to a Grass Force Displacement Transducer FT03. The tissue was maintained in room temperature Tyrodes buffer pH 7.4 and continually gassed with 95% O2— 5% CO2. The tissues were adjusted to 1.0 g resting tension and maintained at that tension throughout the equilibration period. An Ml2 Tissue Bath Computer was used to record and analyze data.
The tissues were washed twice during a 30 minute equilibration period and readjusted to 1 g resting tension as necessary. After equilibration the tissues were challenged with 3 μM Carbachol (Carbamoylcholine Chloride-Sigma). After maximal contraction was attained, the tissues were washed 3 times with Tyrodes. The tissues were allowed a 20 minute resting/equilibration period, during which time they were washed once and readjusted to 1 g resting tension. The tissues were challenged a second time with 3 μM Carbachol, and this contraction was considered as maximal, or 100% contraction. The tissues were washed 3 times, equilibrated for 10 minutes, washed again and readjusted to 1 g resting tension. Vehicle or test compound in 30% DMSO-50 mM HEPES was added directly to the bath and the tissues were incubated for 20 minutes. Test compounds and vehicle were run in duplicate.
The percent inhibition by test compound of the motilin induced contraction was calculated by first determining the ratio of the vehicle contractions with Motilin compared to the Carbachol contractions. This Tissue Adjustment Factor (TAF) was used to determine the value for the potential uninhibited contraction with Motilin for each tissue. The percent inhibition was then determined by dividing the actual Motilin contraction in treated tissues by the potential uninhibited contraction and subtracting this number from 1. IC50 values were determined by graphing results with Kaleidograph graphing program.

pIC50: −log10 of the molar value.

The term pIC50 denotes the IC50 on a negative log10 scale, so that one unit is a factor of ten.

T1 sequence (G1T803 1-400): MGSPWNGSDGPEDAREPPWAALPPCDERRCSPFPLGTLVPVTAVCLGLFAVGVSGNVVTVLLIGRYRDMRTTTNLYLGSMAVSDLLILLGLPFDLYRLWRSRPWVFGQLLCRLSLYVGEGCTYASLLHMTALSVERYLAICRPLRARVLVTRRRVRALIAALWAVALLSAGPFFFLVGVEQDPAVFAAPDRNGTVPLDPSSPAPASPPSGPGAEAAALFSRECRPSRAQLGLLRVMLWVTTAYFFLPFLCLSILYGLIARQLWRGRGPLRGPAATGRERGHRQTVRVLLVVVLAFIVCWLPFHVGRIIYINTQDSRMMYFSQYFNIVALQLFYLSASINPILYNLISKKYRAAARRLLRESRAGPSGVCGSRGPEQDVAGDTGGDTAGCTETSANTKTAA

As to `O=C(Nc1ccccc1)N(CC1CCCC(N(Cc2cccc([N+](=O)[O-])c2)C(=O)C(Cl)(Cl)Cl)C1)c1cccc(OCCN2CCOCC2)c1` (stereo not shown) [compound 65], at Motilin Receptor, the inhibition is 80% and the pIC50 is 7.46. The pIC50 in experiment [1] was 7.57.

In the case of `O=C(c1ccc(F)cc1)N(CC1CCCC(N(Cc2ccccn2)C(=O)C(Cl)(Cl)Cl)C1)c1cccc(OCCN2CCOCC2)c1` (stereo not shown) [compound 90], on Motilin Receptor, the inhibition came out at 95% and the pIC50 was 6.31. Moreover, the negative logarithm of the IC50 (pIC50) in experiment [1] is under 6.52.

Consider `O=C(c1ccc(F)cc1)N(CC1CCCC(N(Cc2cccc([N+](=O)[O-])c2)C(=O)C(Cl)(Cl)Cl)C1)c1cccc(OCCN2CCOCC2)c1` (stereo not shown) [compound 93], for which, at Motilin Receptor, the inhibition came out at 100%. Also, the values for the pIC50 (at Motilin Receptor; in experiment [1]) were 7.05 and 7.69, respectively.

As to `O=C(c1ccc(F)cc1)N(CC1CCCC(N(Cc2cccc(C(F)(F)F)c2)C(=O)C(Cl)(Cl)Cl)C1)c1cccc(OCCN2CCOCC2)c1` (stereo not shown) [compound 96], on Motilin Receptor, the inhibition was 71% and the pIC50 is 5.77. The negative logarithm of the IC50 (pIC50) in experiment [1] is under 7.52.

`CC(C)(C)C(=O)N(Cc1cccc(Cl)c1)C1CCCC(CN(C(=O)c2ccc(F)cc2)c2cccc(OCCN3CCOCC3)c2)C1` (stereo not shown) [compound 105]: the inhibition on Motilin Receptor was determined as 80%. Moreover, the pIC50 was 6.41 at Motilin Receptor and 7.52 in experiment [1].

Regarding `O=C(CCCC(=O)N1CCc2ccccc2C1c1ccccc1)N(Cc1ccc(F)cc1)c1cccc(OCCN2CCOCC2)c1` (stereo not shown) [compound 153], the inhibition at Motilin Receptor worked out at 89%. Also, the pIC50 at Motilin Receptor is 7.09; in experiment [1], 7.52.

`O=C(CCCC(=O)N(Cc1ccc(F)cc1)c1cccc(OCCN2CCOCC2)c1)N(CCc1ccccc1)Cc1cccc(Cl)c1` [compound 162]: at Motilin Receptor, the inhibition came out at 85% and the pIC50 is 6.75. Besides, the pIC50 in experiment [1] was 7.68.

For the molecule `O=C(CCC(=O)N(Cc1ccc(F)cc1)c1cccc(OCCN2CCOCC2)c1)N(CCc1ccccc1)Cc1cccc(Cl)c1` [compound 163], at Motilin Receptor, the inhibition turned out to be 85% and the pIC50 was 6.76. Also, the pIC50 in experiment [1] is 7.72.

In the case of `O=C(CCC(=O)N(Cc1cccc(F)c1)c1cccc(OCCN2CCOCC2)c1)N(CCc1ccccc1)Cc1ccccc1` [compound 164], on Motilin Receptor, the inhibition was determined as 84% and the pIC50 was 6.71. For the same molecule, in experiment [1], the pIC50 is 7.32.

Turning to `O=C(CCCC(=O)N(Cc1cccc(F)c1)c1cccc(OCCN2CCOCC2)c1)N(CCc1ccccc1)Cc1ccccc1` [compound 169], at Motilin Receptor, the inhibition was found to be 97% and the pIC50 is 7.34. In addition, the pIC50 in experiment [1] is 6.62.

With `O=C(CCCC(=O)N(Cc1ccccc1F)c1cccc(OCCN2CCOCC2)c1)N(CCc1ccccc1)Cc1ccccc1` [compound 170], at Motilin Receptor, the inhibition was determined as 81%. In addition, the pIC50 at Motilin Receptor is 6.79; in experiment [1], 6.73.

Take `COc1ccc(CN(C(=O)CCCC(=O)N(CCc2ccccc2)Cc2ccccc2)c2cccc(OCCN3CCOCC3)c2)cc1` [compound 171]: at Motilin Receptor, the inhibition was found to be 63% and the pIC50 was 6.34. Further, the pIC50 in experiment [1] is 6.64.

As for `O=C(CCCC(=O)N(Cc1ccc(Cl)cc1)c1cccc(OCCN2CCOCC2)c1)N(CCc1ccccc1)Cc1ccccc1` [compound 173], on Motilin Receptor, the inhibition worked out at 84% and the pIC50 is 6.54. Besides, the pIC50 in experiment [1] was 6.55.

In the case of `CC(C)(C)C(=O)N(Cc1ccccc1)[C@@H]1CCC[C@H](CN(C(=O)c2ccc(F)cc2)c2cccc(OCCN3CCCC3)c2)C1` [compound 214], the pIC50 in experiment [1] is 7.62.

On to `O=C(c1ccc(F)cc1)N(CC1CCCC(N2C(=O)c3ccc4ccc(F)cc4c3C2=O)C1)c1cccc(OCCN2CCOCC2)c1` (stereo not shown) [compound 261], for which the “Rabbit Colon % Inh” value on Motilin Receptor stood at 0%.

For `O=C(c1ccc(F)cc1)N(CC1CCCC(N2C(=O)C3CC3C2=O)C1)c1cccc(OCCN2CCOCC2)c1` (stereo not shown) [compound 262], the “Rabbit Colon % Inh” value on Motilin Receptor is 18%.

As to `O=C(c1ccc(F)cc1)N(CC1CCCC(N2C(=O)c3c(Cl)ccc(Cl)c3C2=O)C1)c1cccc(OCCN2CCOCC2)c1` (stereo not shown) [compound 263], the “Rabbit Colon % Inh” value at Motilin Receptor stood at 11%.
